Experiments:
human TLR9 = human TLR9 (Homo sapiens (Human), UniProt Q9NR96); test: TLR9 inhibition reporter assay (HEK-Blue SEAP reporter, ODN2006 stimulation); details: read-out: TLR9 IC50; HEK-Blue cells overexpressing human TLR9, ODN2006 5 nM, SEAP reporter;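 further: SEAP reporter under IFN-β minimal promoter with five NF-κB and AP-1 sites, 22 h incubation, compounds 0.05 nM–50 µM, inhibition relative to agonist plus DMSO versus known inhibitor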
human TLR7 = human TLR7 (Homo sapiens (Human), UniProt Q9NYK1); test: TLR7 inhibition reporter assay (HEK-Blue SEAP reporter, gardiquimod stimulation); format: cell-based; details: HEK-Blue cells overexpressing human TLR7, gardiquimod 7.5 μM
Method: HEK-Blue™-cells (Invivogen) overexpressing human TLR7, TLR8 or TLR9 receptors were used for screening inhibitors of these receptors using an inducible SEAP (secreted embryonic alkaline phosphatase) reporter gene under the control of the IFN-β minimal promoter fused to five NF-κB and AP-1-binding sites. Briefly, cells are seeded into Greiner 384 well plates (15000 cells per well for TLR7, 20,000 for TLR8 and 25,000 for TLR9) and then treated with test compounds in DMSO to yield a final dose response concentration range of 0.05 nM-50 μM. After a 30 minute compound pre-treatment at room temperature, the cells are then stimulated with a TLR7 ligand (gardiquimod at a final concentration of 7.5 μM), TLR8 ligand (R848 at a final concentration of 15.9 μM) or TLR9 ligand (ODN2006 at a final concentration of 5 nM) to activate NF-κB and AP-1 which induce the production of SEAP. After a 22 hour incubation at 37° C., 5% CO2, SEAP levels are determined with the addition of HEK-Blue™ Detection reagent (Invivogen), a cell culture medium that allows for detection of SEAP, according to manufacturer's specifications.

human TLR8 = human TLR8 (Homo sapiens (Human), UniProt Q9NR97); test: TLR8 inhibition reporter assay (HEK-Blue SEAP reporter, R848 stimulation); details: read-out: TLR8 IC50; HEK-Blue cells overexpressing human TLR8, R848 15.9 μM, SEAP reporter;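 further: SEAP driven by IFN-β minimal promoter with NF-κB and AP-1 sites, 22 h incubation, compounds 0.05 nM–50 µM, inhibition scaled between agonist plus DMSO and reference inhibitor wells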
Chain of human TLR8 (Q9NR97 27-1041): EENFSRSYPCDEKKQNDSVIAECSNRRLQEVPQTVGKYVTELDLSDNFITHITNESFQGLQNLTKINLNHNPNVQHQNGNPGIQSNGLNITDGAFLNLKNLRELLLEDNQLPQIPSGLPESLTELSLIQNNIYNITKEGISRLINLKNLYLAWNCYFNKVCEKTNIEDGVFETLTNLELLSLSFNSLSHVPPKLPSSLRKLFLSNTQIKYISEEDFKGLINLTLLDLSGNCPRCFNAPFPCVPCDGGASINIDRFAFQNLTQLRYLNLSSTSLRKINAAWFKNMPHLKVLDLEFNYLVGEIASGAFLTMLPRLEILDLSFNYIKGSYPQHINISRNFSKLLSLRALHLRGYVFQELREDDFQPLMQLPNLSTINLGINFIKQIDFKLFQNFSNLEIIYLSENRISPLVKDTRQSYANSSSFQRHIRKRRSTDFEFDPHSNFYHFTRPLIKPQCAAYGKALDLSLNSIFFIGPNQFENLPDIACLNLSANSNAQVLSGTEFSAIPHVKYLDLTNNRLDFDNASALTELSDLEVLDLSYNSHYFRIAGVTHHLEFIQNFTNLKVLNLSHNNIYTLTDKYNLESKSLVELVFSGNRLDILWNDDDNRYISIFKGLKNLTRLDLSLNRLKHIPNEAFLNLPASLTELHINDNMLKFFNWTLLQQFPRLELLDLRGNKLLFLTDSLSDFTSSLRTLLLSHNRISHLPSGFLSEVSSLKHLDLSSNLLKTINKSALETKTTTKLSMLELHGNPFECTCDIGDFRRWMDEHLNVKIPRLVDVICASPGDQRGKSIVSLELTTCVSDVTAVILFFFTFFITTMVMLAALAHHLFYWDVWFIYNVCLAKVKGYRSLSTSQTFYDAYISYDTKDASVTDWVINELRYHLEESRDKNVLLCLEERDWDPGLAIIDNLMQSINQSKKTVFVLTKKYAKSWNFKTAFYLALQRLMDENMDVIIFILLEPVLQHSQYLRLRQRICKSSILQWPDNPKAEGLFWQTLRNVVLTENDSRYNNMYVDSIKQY

Chain of human TLR7 (Q9NYK1 27-1049): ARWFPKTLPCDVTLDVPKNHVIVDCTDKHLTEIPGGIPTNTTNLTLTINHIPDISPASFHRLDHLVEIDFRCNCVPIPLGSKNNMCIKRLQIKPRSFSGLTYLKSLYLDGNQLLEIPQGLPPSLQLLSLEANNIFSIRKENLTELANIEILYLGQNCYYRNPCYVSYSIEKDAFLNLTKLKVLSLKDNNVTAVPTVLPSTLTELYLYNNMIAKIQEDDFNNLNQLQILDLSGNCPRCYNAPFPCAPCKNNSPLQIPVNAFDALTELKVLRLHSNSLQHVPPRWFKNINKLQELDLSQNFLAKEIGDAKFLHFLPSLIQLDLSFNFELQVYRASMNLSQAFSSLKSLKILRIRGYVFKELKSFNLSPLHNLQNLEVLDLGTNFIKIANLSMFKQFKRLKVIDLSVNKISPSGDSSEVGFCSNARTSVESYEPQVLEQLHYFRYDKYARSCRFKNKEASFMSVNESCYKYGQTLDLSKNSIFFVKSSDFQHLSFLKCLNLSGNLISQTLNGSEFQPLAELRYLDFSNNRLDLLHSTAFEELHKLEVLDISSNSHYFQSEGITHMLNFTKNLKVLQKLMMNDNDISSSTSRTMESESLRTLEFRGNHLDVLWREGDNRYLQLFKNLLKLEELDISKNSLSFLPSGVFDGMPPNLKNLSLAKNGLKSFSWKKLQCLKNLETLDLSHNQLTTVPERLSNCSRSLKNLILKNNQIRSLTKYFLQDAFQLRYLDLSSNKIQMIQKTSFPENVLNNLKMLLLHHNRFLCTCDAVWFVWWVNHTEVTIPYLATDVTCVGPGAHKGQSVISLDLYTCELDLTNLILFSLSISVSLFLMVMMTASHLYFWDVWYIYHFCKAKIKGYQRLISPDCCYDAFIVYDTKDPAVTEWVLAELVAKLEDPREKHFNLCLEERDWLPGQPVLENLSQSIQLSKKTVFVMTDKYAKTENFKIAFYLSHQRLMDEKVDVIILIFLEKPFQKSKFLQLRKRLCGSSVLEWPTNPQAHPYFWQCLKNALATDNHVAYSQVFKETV
Chain of human TLR9 (Q9NR96 26-1032): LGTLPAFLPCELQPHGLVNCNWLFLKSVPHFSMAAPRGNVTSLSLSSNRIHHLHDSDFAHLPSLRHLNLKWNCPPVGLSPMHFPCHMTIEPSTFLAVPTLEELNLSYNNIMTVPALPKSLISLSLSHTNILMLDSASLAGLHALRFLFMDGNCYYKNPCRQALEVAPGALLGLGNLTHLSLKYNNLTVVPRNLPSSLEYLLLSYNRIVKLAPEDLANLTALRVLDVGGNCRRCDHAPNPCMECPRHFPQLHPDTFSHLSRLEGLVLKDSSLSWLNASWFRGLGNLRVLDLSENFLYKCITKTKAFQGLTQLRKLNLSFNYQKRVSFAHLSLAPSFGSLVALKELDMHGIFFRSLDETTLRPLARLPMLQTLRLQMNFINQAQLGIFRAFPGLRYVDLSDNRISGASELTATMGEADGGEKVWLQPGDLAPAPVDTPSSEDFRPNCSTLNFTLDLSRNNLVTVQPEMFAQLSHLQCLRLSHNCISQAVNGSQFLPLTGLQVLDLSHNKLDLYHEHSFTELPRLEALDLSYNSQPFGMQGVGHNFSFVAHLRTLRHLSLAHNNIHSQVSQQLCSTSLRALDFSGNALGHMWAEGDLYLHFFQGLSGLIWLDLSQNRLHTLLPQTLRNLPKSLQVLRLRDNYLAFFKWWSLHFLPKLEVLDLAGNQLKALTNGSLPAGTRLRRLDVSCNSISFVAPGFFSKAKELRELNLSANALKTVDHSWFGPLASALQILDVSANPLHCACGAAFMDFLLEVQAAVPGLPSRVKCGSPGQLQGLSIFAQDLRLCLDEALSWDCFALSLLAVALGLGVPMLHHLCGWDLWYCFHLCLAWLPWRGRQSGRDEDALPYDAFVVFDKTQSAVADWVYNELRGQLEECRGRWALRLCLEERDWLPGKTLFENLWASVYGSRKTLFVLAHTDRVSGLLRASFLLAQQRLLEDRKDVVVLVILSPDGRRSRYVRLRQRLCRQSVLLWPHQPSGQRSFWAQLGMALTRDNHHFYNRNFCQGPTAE

| Structure (SMILES) | IC50 (human TLR9) | IC50 (human TLR7) | IC50 (human TLR8) |
| --- | --- | --- | --- |
| CCc1c(-c2ccc(OC)c(OC)c2)[nH]c2ccc(C(=O)NC3CCC(N(C)C)CC3)cc12 (centres unmarked) [Example 19, 2-(3,4-dimethoxyphenyl)-N-(4-(dimethylamino)cyclohexyl)-3-ethyl-1H-indole-5-carboxamide] | 1390 nM | 104 nM | – |
| CCc1c(-c2ccc(OC)c(OC)c2)[nH]c2ccc(C(=O)N3CCC(N(C)C)CC3)cc12 [Example 31, (2-(3,4-dimethoxyphenyl)-3-ethyl-1H-indol-5-yl)(4-(dimethylamino)piperidin-1-yl)methanone] | 4930 nM | 296 nM | – |
| CCc1c(-c2ccc(OC)c(OC)c2)[nH]c2ccc(C(=O)N3CCN(C4CCN(C)CC4)CC3)cc12 [Example 36, (2-(3,4-dimethoxyphenyl)-3-ethyl-1H-indol-5-yl)(4-(1-methylpiperidin-4-yl)piperazin-1-yl)methanone] | 1930 nM | 138 nM | – |
| CCc1c(-c2ccc(OC)c(OC)c2)[nH]c2ccc(C(=O)N[C@H]3CC[C@H](N)CC3)cc12 [Example 47, N-((1r,4r)-4-aminocyclohexyl)-2-(3,4-dimethoxyphenyl)-3-ethyl-1H-indole-5-carboxamide] | 2790 nM | 150 nM | – |
| CCc1c(-c2ccc(OC)c(OC)c2)[nH]c2ccc(C(=O)NCCN3CCCCC3)cc12 [Example 49, 2-(3,4-dimethoxyphenyl)-3-ethyl-N-(2-(piperidin-1-yl)ethyl)-1H-indole-5-carboxamide] | 2410 nM | 144 nM | – |
| CCc1c(-c2ccc(OC)c(OC)c2)[nH]c2ccc(C(=O)NCCc3ccncc3)cc12 [Example 50, 2-(3,4-dimethoxyphenyl)-3-ethyl-N-(2-(pyridin-4-yl)ethyl)-1H-indole-5-carboxamide] | 19900 nM | 382 nM | – |
| CCc1c(-c2ccc(OC)c(OC)c2)[nH]c2ccc(C(=O)NCCc3cccnc3)cc12 [Example 51, 2-(3,4-dimethoxyphenyl)-3-ethyl-N-(2-(pyridin-3-yl)ethyl)-1H-indole-5-carboxamide] | > 50000 nM | 705 nM | – |
| CCc1c(-c2ccc(OC)c(OC)c2)[nH]c2ccc(C(=O)N3CCN(c4cnccn4)CC3)cc12 [Example 58, (2-(3,4-dimethoxyphenyl)-3-ethyl-1H-indol-5-yl)(4-(pyrazin-2-yl)piperazin-1-yl)methanone] | – | 194 nM | 110 nM |
| CCc1c(-c2ccc(OC)c(OC)c2)[nH]c2ccc(C(=O)N3CCN(c4ccccn4)CC3)cc12 [Example 59, (2-(3,4-dimethoxyphenyl)-3-ethyl-1H-indol-5-yl)(4-(pyridin-2-yl)piperazin-1-yl)methanone] | > 50000 nM | 1140 nM | – |
| Cc1cc(-c2[nH]c3ccc(C(C)C(=O)NCCC(C)(C)O)cc3c2C(C)C)ccn1 (centres unmarked) [Example 132, N-(3-hydroxy-3-methylbutyl)-2-(3-isopropyl-2-(2-methylpyridin-4-yl)-1H-indol-5-yl)propanamide] | – | 947 nM | 964 nM |
| Cc1cc(-c2[nH]c3ccc(C(C)(C)C(=O)N4CCCC(CCN)C4)cc3c2C(C)C)ccn1 (centres unmarked) [Example 154, 1-(3-(2-aminoethyl)piperidin-1-yl)-2-(3-isopropyl-2-(2-methylpyridin-4-yl)-1H-indol-5-yl)-2-methylpropan-1-one] | – | 58 nM | 256 nM |
| Cc1c(-c2[nH]c3ccc(C(=O)N4CCN(C)CC4)cc3c2C(C)C)cn(C)c(=O)c1Cl [Example 220, 3-chloro-5-(3-isopropyl-5-(4-methylpiperazine-1-carbonyl)-1H-indol-2-yl)-1,4-dimethylpyridin-2(1H)-one] | – | 141 nM | 2.1 nM |
| CCCN1CCC(N(C(=O)c2ccc3[nH]c(-c4cn(C)c(=O)c(Cl)c4C)c(C(C)C)c3c2)C2CC2)CC1 [Example 221, 2-(5-chloro-1,4-dimethyl-6-oxo-1,6-dihydropyridin-3-yl)-N-cyclopropyl-3-isopropyl-N-(1-propylpiperidin-4-yl)-1H-indole-5-carboxamide] | 2940 nM | – | 0.7 nM |

— patent US11420973B2, “Amide substituted indole compounds useful as TLR inhibitors” (BRISTOL-MYERS SQUIBB COMPANY, priority 2017, dated 2022)
